Values quoted from earlier work, collected in paper PMC5742115, “Pharmacophore Modeling and in Silico/in Vitro Screening for Human Cytochrome P450 11B1 and Cytochrome P450 11B2 Inhibitors” (Frontiers in Chemistry, 2017).
Like-named read-outs stand apart in the source and are kept apart here.

What was measured:
CYP11B1 = conditions: 2013, cited from earlier work
CYP11B2 = conditions: 2013, cited from earlier work
[1] = reported activity, supplementary Table 1, ref Emmerich et al., read-out: CYP11B1 IC50
[2] = reported activity, supplementary Table 1, ref Emmerich et al., read-out: CYP11B2 IC50
[3] = reported activity, supplementary Table 1, ref Pinto-Bazurco Mendieta et al., read-out: CYP11B1 IC50
[4] = reported activity, supplementary Table 1, ref Pinto-Bazurco Mendieta et al., read-out: CYP11B2 IC50
[5] = reported activity, supplementary Table 1, ref Meredith et al., read-out: CYP11B1 IC50
[6] = reported activity, supplementary Table 1, ref Meredith et al., read-out: CYP11B2 IC50
[7] = Figure 2, ref Yin et al., 2012, Emmerich et al., Gobbi et al., 2016, read-out: hCYP11B1 IC50
[8] = Figure 2, ref Yin et al., 2012, Emmerich et al., Gobbi et al., 2016, read-out: hCYP11B2 IC50
[9] = Figure 3, training compounds, ref Meredith et al., read-out: hCYP11B1 IC50
[10] = Figure 3, training compounds, ref Meredith et al., read-out: hCYP11B2 IC50

| SMILES | IC50 (CYP11B1; [3]) [nM] | IC50 (CYP11B2; [4]) [nM] | further results |
| --- | --- | --- | --- |
| c1ccc(-c2ncc(Cn3ccnc3)c3ccccc23)cc1 [CHEMBL2417632] | – | – | IC50 (CYP11B1; [1]): 87 nM; IC50 (CYP11B2; [2]): 302 nM |
| c1ccc(-c2ccc(Cc3cccnc3)cn2)cc1 [CHEMBL2417633] | – | – | IC50 (CYP11B1; [1]): 32 nM; IC50 (CYP11B2; [2]): 322 nM |
| c1ccc(-c2ccc(Cc3ccncc3)cn2)cc1 [CHEMBL2417634] | – | – | IC50 (CYP11B1; [1]): 98 nM; IC50 (CYP11B2; [2]): 621 nM |
| c1ccc(-c2ccc(Cc3cncc4ccccc34)cn2)cc1 [CHEMBL2417635] | – | – | IC50 (CYP11B1; [1]): 6 nM; IC50 (CYP11B2; [2]): 23 nM |
| Cc1ccncc1Cc1ccc(-c2ccccc2)nc1 [CHEMBL2417637] | – | – | IC50 (CYP11B1; [1]): 8 nM; IC50 (CYP11B2; [2]): 19 nM |
| Oc1ccc2ccc(-c3cccnc3)c(Cl)c2c1 [CHEMBL2420674] | 235 | 26 | – |
| COc1ccc2ccc(-c3cccnc3)c(F)c2c1 [CHEMBL2420675] | 1610 | 17 | – |
| Oc1ccc2ccc(-c3cccnc3)c(F)c2c1 [CHEMBL2420676] | 1160 | 30 | – |
| COc1ccc2ccc(-c3cccnc3)c(Cl)c2c1F [CHEMBL2420677] | 2940 | 28 | – |
| Oc1ccc2ccc(-c3cccnc3)c(Cl)c2c1F [CHEMBL2420678] | 224 | 25 | – |
| COc1ccc2ccc(-c3cncc(F)c3)c(Cl)c2c1 [CHEMBL2420679] | 1420 | 38 | – |
| Oc1ccc2ccc(-c3cncc(F)c3)c(Cl)c2c1 [CHEMBL2420680] | 450 | 33 | – |
| COc1cncc(-c2ccc3ccc(OC)cc3c2Cl)c1 [CHEMBL2420681] | 447 | 24 | – |
| COc1cncc(-c2ccc3ccc(O)cc3c2Cl)c1 [CHEMBL2420682] | 245 | 15 | – |
| COc1ccc2ccc(-c3cncc(O)c3)c(Cl)c2c1 [CHEMBL2420683] | 7100 | 13 | – |
| Oc1cncc(-c2ccc3ccc(O)cc3c2Cl)c1 [CHEMBL2420684] | 2840 | 27 | – |
| COc1ccc2ccc(-c3cncnc3)c(Cl)c2c1 [CHEMBL2420685] | 12300 | 72 | – |
| Oc1ccc2ccc(-c3cncnc3)c(Cl)c2c1 [CHEMBL2420686] | 2430 | 22 | – |
| COc1ccc2ccc(-c3cncc4ccccc34)c(Cl)c2c1 [CHEMBL2420687] | 362 | 54 | – |
| Oc1ccc2ccc(-c3cncc4ccccc34)c(Cl)c2c1 [CHEMBL2420688] | 238 | 66 | – |
| N#Cc1ccc([C@H]2CCCCc3cncn32)c(F)c1 [CHEMBL3099683] | – | – | IC50 (CYP11B1; [5]): 1 nM; IC50 (CYP11B2; [6]): 0.3 nM |
| N#Cc1ccc([C@@]2(C(=O)OCc3ccc(F)cc3)CCc3cncn32)c(Cl)c1 [CHEMBL3099689] | – | – | IC50 (CYP11B1; [5]): 0.1 nM; IC50 (CYP11B2; [6]): 3.8 nM |
| Cc1cc(C#N)ccc1[C@H]1CCc2cncn21 [CHEMBL3099696] | – | – | IC50 (CYP11B1; [5]): 0.9 nM; IC50 (CYP11B2; [6]): 1.5 nM |
| N#Cc1ccc([C@H]2CCCCc3cncn32)c(-c2ccc(F)cc2)c1 [CHEMBL3099704] | – | – | IC50 (CYP11B1; [5]): 0.4 nM; IC50 (CYP11B2; [6]): 0.3 nM |
| Cc1cncc(Cc2ccc(-c3ccccc3)nc2)c1 [Compound 1] | – | – | IC50 (CYP11B1; [7]): 2 nM; IC50 (CYP11B2; [8]): 33 nM |
| O=C1CCc2cc(C(C3CC3)n3ccnc3)cc3c2N1CC3 (stereo not drawn) [Compound 2] | – | – | IC50 (CYP11B1; [7]): 2.2 nM; IC50 (CYP11B2; [8]): 24 nM |
| O=c1c(Cn2ccnc2)c(-c2ccccc2)oc2cc(F)ccc12 [Compound 3] | – | – | IC50 (CYP11B1; [7]): 9.7 nM; IC50 (CYP11B2; [8]): 94.9 nM |
| N#Cc1ccc([C@@H]2CCCCc3cncn32)c(-c2ccc(F)cc2)c1 [Compound 4] | – | – | IC50 (CYP11B1; [9]): 0.4 nM; IC50 (CYP11B2; [10]): 0.3 nM |
| N#Cc1ccc(C2(C(=O)OCc3ccc(F)cc3)CCc3cncn32)c(Cl)c1 (stereo not drawn) [Compound 5] | – | – | IC50 (CYP11B1; [9]): < 0.1 nM; IC50 (CYP11B2; [10]): 3.8 nM |
